Laboratory results as given in patent US20220146526A1, “METHOD FOR EVALUATING SAMPLE, ANALYSIS METHOD, METHOD FOR DETECTING DEGRADED SAMPLE, MARKER FOR DETECTING DEGRADED BLOOD PLASMA SAMPLE, AND MARKER FOR DETECTING DEGRADED SERUM SAMPLE” (SHIMADZU CORPORATION, priority 2019, published 2022).
Where “and” joins values, the source holds several entries; their conditions need not be identical. Identical values can stand only once.

How the values were obtained:
Format in all cases: physicochemical, human
[1] = GC/MS of serum sample: number of times of freezing and thawing (Table I); design: key to Rate of increase or decrease / Rate of increase or decrease (first value, increase): detection intensity relative to 2 freeze-thaw cycles = 1; settings: for Rate of increase or decrease: detection intensity relative to 1 at 2 times; for Number of times when compound is affected: detection intensity changed by 30% or more vs 2 times of freezing and thawing
Method in brief: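 Detection intensities are ratios to the value after two freeze–thaw cycles, which is set as 1, compared against 4, 6 and 10 cycles. Analysis used methoxymation and trimethylsilylation derivatization, then GC/MS with EI ionization and multiple reaction monitoring on a BPX5 column. Serum came from blood held at room temperature and spun at 3500 rpm for 5 min.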

[2] = GC/MS of serum sample: time from centrifugation to isolation (Table H); design: key to Rate of increase or decrease / Rate of increase or decrease (first value, increase): detection intensity relative to 1 at 30 min centrifugation-to-isolation; settings: for Rate of increase or decrease: detection intensity relative to 1 at 30 minutes, after 1 hour; for Increase or decrease: detection intensity, after 1 hour vs 30 minutes
Method in brief: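 Values are GC/MS (EI, MRM) detection intensities of methoxymated/trimethylsilylated serum, normalised to 1 for the 30-min sample. Serum was isolated 30 min, 1 h or 6 h after room-temperature centrifugation (3500 rpm, 5 min) of blood.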

[3] = GC/MS of blood plasma sample: time from blood collection to centrifugation (Table A); settings: for Increase or decrease: detection intensity; for Increase or decrease / Rate of increase or decrease: blood collection to centrifugation; for Rate of increase or decrease (second value, decrease) / Rate of increase or decrease (first value, increase): different from individual to individual, relative to 1 at 15 minutes, collection to centrifugation; for Rate of increase or decrease (second value, decrease): individuals with decrease; for Rate of increase or decrease (first value, increase): individuals with increase; for Rate of increase or decrease: detection intensity relative to 1 at 15 minutes
Method in brief: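 Read-out is MRM detection intensity by electron-ionization GC/MS on a BPX5 column after methoxymation and trimethylsilylation, expressed relative to a 15-minute collection-to-centrifugation interval. Plasma was prepared from EDTA blood held at 4° C and spun at 4° C, 3000 rpm for 15 minutes, then frozen.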

[4] = GC/MS of blood plasma sample: time from blood collection to cooling of blood (Table B); design: key to Rate of increase or decrease / Rate of increase or decrease (first value, increase): detection intensity relative to 1 at cooling time ≤1 min; settings: for Increase or decrease: detection intensity, blood collection to cooling 5 minutes or more vs 1 minute or less; for Rate of increase or decrease (second value, decrease) / Rate of increase or decrease (first value, increase): different from individual to individual, relative to 1 at 1 minute or less, collection to cooling 5 minutes; for Rate of increase or decrease (second value, decrease): individuals with decrease; for Rate of increase or decrease (first value, increase): individuals with increase; for Rate of increase or decrease: detection intensity relative to 1 at 1 minute or less, blood collection to cooling 5 minutes
Protocol: At room temperature, 5 mL of blood from a healthy subject was taken into a blood-collecting vessel containing EDTA, and the blood-collecting vessel was inverted for mixing, then cooled, and allowed to stand at 4° C. Here, in order to investigate how the detection intensity of molecules contained in the sample was affected in a case where the time to cooling was set to 5 minutes or more as compared to that in a case where the time to cooling was set to 1 minute or less, preparations were performed under both the former condition and the latter condition. After standing, the blood sample was subjected to centrifugation under a condition of 4° C., 3000 rpm, and 15 minutes. […] After centrifugation, the blood-collecting vessel was left to stand at room temperature for 30 minutes, and the blood plasma was isolated during this 30 minutes. The obtained blood plasma sample was frozen and stored. Here, in order to investigate how the detection intensity of molecules contained in the sample was affected in cases where freezing and thawing was performed 4 times, 6 times, and 10 times after freezing as compared to that in a case where freezing and thawing was performed 2 times after freezing, freezing and thawing was performed under the respective conditions of 2, 4, 6, and 10 times.
Frozen blood plasma samples and serum samples were subjected to GC/MS or LC/MS. In GC/MS, the blood plasma samples and serum samples were subjected to methoxymation and trimethylsilylation and then introduced to GC-MS.
GC/MS was conducted using GCMS·TQ8040 (Shimadzu Corporation) that was a GC·MS equipped with AOC·20i (Shimadzu Corporation) as an autosampler.
Column: BPX5 (inner diameter of 0.25 mm, length of 30 m, and film thickness of 0.25 μm) (SGE)
Column temperature: maintained at 60° C. for 2 minutes, then raised at 15° C./min, and maintained at 330° C. for 3 minutes.
Inlet temperature: 250° C.
Carrier gas control mode: constant linear velocity of 39.0 cm/sec
Sample introduction method: split (split ratio of 30:1) Injection volume: 1 μL
Ionization method: electron ionization
Ionization current: 60 μA
Interface temperature: 280° C.
Ion source temperature: 200° C.
Mode: multiple reaction monitoring (MRM)
Table B presents compounds of which the detection intensity increased or decreased by 30% or more in a case where the time from blood collection to cooling of blood, when a blood plasma sample was analyzed by GC/MS, was set to 5 minutes or more as compared to that in a case where the time was set to 1 minute or less. The rate of increase or decrease in Table B is the value of detection intensity relative to 1 that is the detection intensity in a case where the time from blood collection to cooling is set to 1 minute or less.

[5] = GC/MS of blood plasma sample: number of times of freezing and thawing (Table C); settings: for Rate of increase or decrease: detection intensity relative to 1 at 2 times; for Increase or decrease: detection intensity; for Rate of increase or decrease (second value, decrease) / Rate of increase or decrease (first value, increase): different from individual to individual, relative to 1 at 2 times; for Rate of increase or decrease (second value, decrease): individuals with decrease; for Rate of increase or decrease (first value, increase): individuals with increase
Method in brief: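 Values express detection intensity as a ratio to the 2-cycle freeze-thaw sample (=1), compared with 4, 6 and 10 cycles. Healthy-donor EDTA plasma, cooled at ≤1 min or ≥5 min, spun at 4 °C, 3000 rpm, 15 min. Derivatised by methoxymation/trimethylsilylation; GC-MS/MS in MRM mode with electron ionization.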

[6] = GC/MS of serum sample: time from blood collection to centrifugation (Table G); settings: blood collection to centrifugation; for Rate of increase or decrease: detection intensity relative to 1 at 15 minutes; for Increase or decrease: detection intensity
Method in brief: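 Values express detection intensity as a ratio to the sample centrifuged 15 minutes after blood collection (taken as 1). Serum was derivatized by methoxymation and trimethylsilylation, then analysed by electron-ionization GC/MS using multiple reaction monitoring on a BPX5 column ramped from 60 to 330° C.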

[7] = 10 times of freezing and thawing
[8] = serum sample, GC/MS, detection intensity vs 2 times of freezing and thawing
[9] = freezing and thawing 4 times vs 2 times
[10] = freezing and thawing 6 times vs 2 times

SMILES | Rate of increase or decrease [1, 7] | Number of times when compound is affected ([1]; serum sample, GC/MS) [times] | Increase or decrease [1, 8] | Rate of increase or decrease [2] | Increase or decrease [2] | Increase or decrease ([3]; after 4 hours vs 15 minutes) | Rate of increase or decrease (second value, decrease) ([3]; after 4 hours) | Rate of increase or decrease (first value, increase) ([3]; after 4 hours) | Increase or decrease [4] | Rate of increase or decrease (second value, decrease) [4] | Rate of increase or decrease (first value, increase) [4] | Increase or decrease [5, 9] | Rate of increase or decrease ([6]; after 4 hours) | Increase or decrease ([6]; after 4 hours vs 15 minutes) | Rate of increase or decrease ([6]; after 8 hours) | Increase or decrease ([6]; after 8 hours vs 15 minutes) | Rate of increase or decrease [4] | Increase or decrease [5, 10] | also measured
OC[C@H]1O[C@@](CO)(O[C@H]2O[C@H](CO)[C@@H](O)[C@H](O)[C@H]2O)[C@@H](O)[C@@H]1O [Sucrose] | 0.64 | 10 | Decrease | 2.12 | Increase | Different from individual | 0.69 | 2.53 | Different from individual | 0.69 | 2.20 | Decrease | 18.00 | Increase |  |  |  |  | Rate of increase or decrease ([5]; freezing and thawing 4 times): 0.53
O=C(CO)[C@H](O)[C@H](O)[C@H](O)CO [Psicose] |  |  |  | 0.57 | Decrease | Increase |  |  | Different from individual | 0.43 and 0.27 | 3.24 and 1.94 | Different from individual |  |  | 0.65 | Decrease |  |  | Rate of increase or decrease ([1]; serum, GC/MS, freezing and thawing 4 times): 0.54; Rate of increase or decrease ([1]; serum, GC/MS, freezing and thawing 6 times): 1.30; Increase or decrease ([1]; detection intensity, serum, GC/MS, freezing and thawing 4 times vs 2 times): Decrease; Increase or decrease ([1]; detection intensity, serum, GC/MS, freezing and thawing 6 times vs 2 times): Increase; Rate of increase or decrease ([3]; after 4 hours): 4.33; Rate of increase or decrease (second value, decrease) ([5]; freezing and thawing 4 times): 0.70; Rate of increase or decrease (first value, increase) ([5]; freezing and thawing 4 times): 1.77
O=C(CO)[C@H](O)[C@H](O)CO [Ribulose] | 0.68 | 10 | Decrease |  |  | Different from individual | 0.66 | 4.41 | Increase |  |  | Increase |  |  | 1.72 | Increase | 1.96 |  | Rate of increase or decrease ([5]; freezing and thawing 4 times): 1.38
OC[C@H]1O[C@H](O[C@H]2O[C@H](CO)[C@@H](O)[C@H](O)[C@H]2O)[C@H](O)[C@@H](O)[C@@H]1O [Trehalose] | 0.69 | 10 | Decrease | 1.45 | Increase |  |  |  | Different from individual | 0.58 | 5.01 |  |  |  | 1.50 | Increase |  | Increase | Rate of increase or decrease ([3]; after 8 hours): 0.56; Increase or decrease ([3]; after 8 hours vs 15 minutes): Decrease; Rate of increase or decrease ([5]; freezing and thawing 6 times): 1.98
Oc1ccc(O)cc1 [Hydroquinone] |  |  |  |  |  | Increase |  |  | Decrease |  |  | Different from individual |  |  |  |  | 0.66 |  | Rate of increase or decrease ([3]; after 4 hours): 17.48; Rate of increase or decrease (second value, decrease) ([5]; freezing and thawing 4 times): 0.69; Rate of increase or decrease (first value, increase) ([5]; freezing and thawing 4 times): 3.54
O=c1ccn([C@H]2C[C@H](O)[C@@H](CO)O2)c(=O)[nH]1 [2′-Deoxyuridine] |  |  |  |  |  |  |  |  | Decrease |  |  |  |  |  |  |  | 0.68 | Different from individual | Rate of increase or decrease ([3]; after 12 hours): 1.43; Increase or decrease ([3]; after 12 hours vs 15 minutes): Increase; Rate of increase or decrease (second value, decrease) ([5]; freezing and thawing 6 times): 0.67; Rate of increase or decrease (first value, increase) ([5]; freezing and thawing 6 times): 1.43
OC[C@@H](O)[C@@H](O[C@@H]1O[C@H](CO)[C@H](O)[C@H](O)[C@H]1O)[C@H](O)[C@@H](O)CO [Lactitol] |  |  |  | 1.60 | Increase | Different from individual | 0.22 | 3.36 | Decrease |  |  |  | 3.20 | Increase |  |  | 0.67 |  | Rate of increase or decrease ([5]; freezing and thawing 10 times): 1.73; Increase or decrease ([5]; freezing and thawing 10 times vs 2 times): Increase
CC(=O)N[C@@H](CO)C(=O)O [N-acetylserine] |  |  |  | 1.69 | Increase | Different from individual | 0.66 | 1.69 | Different from individual | 0.69 | 1.64 |  |  |  |  |  |  | Different from individual | Rate of increase or decrease (second value, decrease) ([5]; freezing and thawing 6 times): 0.69; Rate of increase or decrease (first value, increase) ([5]; freezing and thawing 6 times): 1.39; Rate of increase or decrease ([6]; after 12 hours): 1.44; Increase or decrease ([6]; after 12 hours vs 15 minutes): Increase
O=P(O)(O)OCC(O)CO (stereo not shown) [Glycerol-3-phosphate] |  |  |  |  |  | Different from individual | 0.32 | 4.90 | Increase |  |  |  | 1.39 | Increase |  |  |  | Decrease | Rate of increase or decrease ([5]; freezing and thawing 6 times): 0.41
